# Assay results from article PMC3914206.
# Columns and labels:
# Format in all cases: binding
# Details in all cases: Compound Concentration 10 µM
# [1] = target: T1, panel of 442 kinases (Homo sapiens, UniProt Q9UBF8)
# T1 construct: purchased KINOMEscan
# Excerpt: (§1) We assessed the selectivity of members of this scaffold using the KINOMEscan methodology across a near comprehensive panel of 442 kinases [[18,27]].
# [2] = target: T2, panel of 442 kinases (Homo sapiens, UniProt P16591)
# T2 construct: purchased KINOMEscan
# T2 sequence (P16591 whole entry): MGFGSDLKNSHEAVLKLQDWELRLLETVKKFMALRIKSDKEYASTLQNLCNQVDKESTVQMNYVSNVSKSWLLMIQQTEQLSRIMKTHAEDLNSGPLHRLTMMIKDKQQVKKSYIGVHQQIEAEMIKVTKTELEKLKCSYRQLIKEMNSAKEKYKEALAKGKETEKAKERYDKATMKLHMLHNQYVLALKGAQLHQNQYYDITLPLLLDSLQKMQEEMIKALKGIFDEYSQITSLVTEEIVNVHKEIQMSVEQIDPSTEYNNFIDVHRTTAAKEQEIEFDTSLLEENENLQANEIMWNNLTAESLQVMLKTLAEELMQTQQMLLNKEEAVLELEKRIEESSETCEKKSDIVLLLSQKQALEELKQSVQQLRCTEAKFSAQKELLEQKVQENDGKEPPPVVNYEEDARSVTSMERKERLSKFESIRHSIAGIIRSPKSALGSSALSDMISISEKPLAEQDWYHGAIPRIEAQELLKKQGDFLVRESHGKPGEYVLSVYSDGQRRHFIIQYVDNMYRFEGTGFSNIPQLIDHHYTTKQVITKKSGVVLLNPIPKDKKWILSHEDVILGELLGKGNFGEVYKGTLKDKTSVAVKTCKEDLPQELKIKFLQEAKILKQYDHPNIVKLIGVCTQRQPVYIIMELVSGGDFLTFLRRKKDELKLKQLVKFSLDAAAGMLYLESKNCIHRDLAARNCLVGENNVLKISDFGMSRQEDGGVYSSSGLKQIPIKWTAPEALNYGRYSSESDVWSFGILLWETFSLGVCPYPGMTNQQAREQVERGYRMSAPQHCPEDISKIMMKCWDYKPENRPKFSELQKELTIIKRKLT
# Excerpt: as §1
# [3] = target: T3, panel of 442 kinases (Homo sapiens, UniProt Q04912)
# T3 construct: purchased KINOMEscan
# T3 sequence (Q04912 25-1400): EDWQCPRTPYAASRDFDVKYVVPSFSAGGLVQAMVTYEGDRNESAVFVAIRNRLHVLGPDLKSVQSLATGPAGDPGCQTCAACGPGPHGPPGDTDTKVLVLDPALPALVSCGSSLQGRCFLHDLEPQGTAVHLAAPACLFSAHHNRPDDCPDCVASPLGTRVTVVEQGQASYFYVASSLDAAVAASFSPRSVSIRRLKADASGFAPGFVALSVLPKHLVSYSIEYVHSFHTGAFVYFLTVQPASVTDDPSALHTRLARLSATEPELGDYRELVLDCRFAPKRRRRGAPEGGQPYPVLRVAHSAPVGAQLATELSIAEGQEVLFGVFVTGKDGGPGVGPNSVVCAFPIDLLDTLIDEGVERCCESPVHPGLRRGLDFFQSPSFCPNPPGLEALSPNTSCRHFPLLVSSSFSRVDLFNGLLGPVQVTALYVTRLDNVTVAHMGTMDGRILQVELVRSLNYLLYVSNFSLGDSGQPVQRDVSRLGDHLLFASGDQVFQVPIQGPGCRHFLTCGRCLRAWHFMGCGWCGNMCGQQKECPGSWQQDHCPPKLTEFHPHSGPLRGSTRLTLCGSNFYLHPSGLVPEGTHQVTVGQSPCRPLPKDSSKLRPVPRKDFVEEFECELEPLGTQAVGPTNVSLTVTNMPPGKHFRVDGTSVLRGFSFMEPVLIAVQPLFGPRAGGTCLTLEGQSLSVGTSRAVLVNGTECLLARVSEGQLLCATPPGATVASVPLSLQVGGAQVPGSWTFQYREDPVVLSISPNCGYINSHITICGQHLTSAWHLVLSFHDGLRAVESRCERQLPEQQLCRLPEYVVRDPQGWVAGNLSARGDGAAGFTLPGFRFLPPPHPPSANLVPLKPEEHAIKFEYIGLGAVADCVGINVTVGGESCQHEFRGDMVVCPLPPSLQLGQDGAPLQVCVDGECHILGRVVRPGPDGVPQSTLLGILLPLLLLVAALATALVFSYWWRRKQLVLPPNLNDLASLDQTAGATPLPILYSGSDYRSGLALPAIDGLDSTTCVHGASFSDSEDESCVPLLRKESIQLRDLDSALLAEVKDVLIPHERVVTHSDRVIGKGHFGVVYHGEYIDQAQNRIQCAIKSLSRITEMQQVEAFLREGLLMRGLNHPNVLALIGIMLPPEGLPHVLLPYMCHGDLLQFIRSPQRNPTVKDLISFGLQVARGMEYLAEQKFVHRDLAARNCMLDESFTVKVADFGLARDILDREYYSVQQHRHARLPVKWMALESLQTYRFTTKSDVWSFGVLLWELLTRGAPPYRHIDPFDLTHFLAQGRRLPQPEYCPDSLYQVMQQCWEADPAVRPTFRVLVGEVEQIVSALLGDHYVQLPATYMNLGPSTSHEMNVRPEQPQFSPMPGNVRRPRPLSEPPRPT
# Excerpt: as §1
# [4] = target: T4, panel of 442 kinases (Homo sapiens, UniProt Q13164)
# T4 construct: purchased KINOMEscan
# T4 sequence (Q13164 whole entry): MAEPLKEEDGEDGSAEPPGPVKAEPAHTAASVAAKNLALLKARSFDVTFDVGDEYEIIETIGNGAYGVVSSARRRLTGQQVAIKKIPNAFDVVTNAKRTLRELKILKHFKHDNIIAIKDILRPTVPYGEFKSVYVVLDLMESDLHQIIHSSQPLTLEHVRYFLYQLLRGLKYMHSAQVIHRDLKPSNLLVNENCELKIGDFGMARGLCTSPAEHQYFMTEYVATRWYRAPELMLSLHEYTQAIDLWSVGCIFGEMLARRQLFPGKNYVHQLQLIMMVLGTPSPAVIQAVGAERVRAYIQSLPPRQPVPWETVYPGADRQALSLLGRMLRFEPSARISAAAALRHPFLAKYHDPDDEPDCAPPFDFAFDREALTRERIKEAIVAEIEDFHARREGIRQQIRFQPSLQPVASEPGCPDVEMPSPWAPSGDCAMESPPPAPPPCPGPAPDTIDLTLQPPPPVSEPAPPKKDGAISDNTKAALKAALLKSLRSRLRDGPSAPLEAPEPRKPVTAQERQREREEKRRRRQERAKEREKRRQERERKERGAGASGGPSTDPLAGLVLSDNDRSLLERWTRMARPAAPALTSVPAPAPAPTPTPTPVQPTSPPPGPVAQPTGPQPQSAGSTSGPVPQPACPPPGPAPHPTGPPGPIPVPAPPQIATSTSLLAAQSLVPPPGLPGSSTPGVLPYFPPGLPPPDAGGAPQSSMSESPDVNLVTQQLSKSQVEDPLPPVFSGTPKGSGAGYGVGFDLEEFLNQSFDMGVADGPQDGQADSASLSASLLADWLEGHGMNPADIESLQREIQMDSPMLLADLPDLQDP
# Excerpt: as §1
# T1 sequence (Q9UBF8 whole entry): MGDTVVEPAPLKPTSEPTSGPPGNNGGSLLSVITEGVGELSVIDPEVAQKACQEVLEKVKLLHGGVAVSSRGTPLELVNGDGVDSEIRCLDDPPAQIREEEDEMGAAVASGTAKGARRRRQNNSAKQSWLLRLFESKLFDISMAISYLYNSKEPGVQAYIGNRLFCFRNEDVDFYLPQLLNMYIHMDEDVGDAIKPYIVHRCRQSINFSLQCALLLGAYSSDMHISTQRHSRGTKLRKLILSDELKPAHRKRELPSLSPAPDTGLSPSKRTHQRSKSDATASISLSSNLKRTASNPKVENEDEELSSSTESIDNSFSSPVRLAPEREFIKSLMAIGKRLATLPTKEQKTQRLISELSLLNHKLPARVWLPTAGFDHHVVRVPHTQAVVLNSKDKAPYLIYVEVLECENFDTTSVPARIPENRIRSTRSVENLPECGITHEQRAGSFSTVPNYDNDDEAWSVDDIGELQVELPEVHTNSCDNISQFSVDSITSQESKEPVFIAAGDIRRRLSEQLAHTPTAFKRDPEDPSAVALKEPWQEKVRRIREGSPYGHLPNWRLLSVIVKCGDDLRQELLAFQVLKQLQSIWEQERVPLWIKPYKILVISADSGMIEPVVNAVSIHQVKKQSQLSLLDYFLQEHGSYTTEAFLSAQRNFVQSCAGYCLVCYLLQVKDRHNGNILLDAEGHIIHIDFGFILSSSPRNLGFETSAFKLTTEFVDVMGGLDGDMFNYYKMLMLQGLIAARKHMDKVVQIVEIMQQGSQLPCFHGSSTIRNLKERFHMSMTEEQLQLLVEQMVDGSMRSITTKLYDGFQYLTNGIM
Compound,KINOMEscan: PIK4CB [1],KINOMEscan: FER [2],KINOMEscan: MST1R [3],KINOMEscan: ERK5 [4]
COc1cc(C(=O)N2CCC(N3CCN(C)CC3)CC2)ccc1Nc1ncc2c(n1)N(C)c1ccccc1C(=O)N2C [15 (LRRK2-IN-1)],95,51,98,0.05
COc1cc(C(=O)N2CCC(N3CCN(C)CC3)CC2)ccc1Nc1ncc2c(n1)N1CCc3cccc(c31)C(=O)N2C [Compound 24],,64,,
"COc1cc(C(=O)N2CCC(N3CCN(C)CC3)CC2)ccc1Nc1ncc2c(n1)N(C1CCCC1)c1ccccc1C(=O)N2C [Compound 25, 11-cyclopentyl-2-((2-methoxy-4-(4-(4-methylpiperazin-1-yl)piperidine-1-carbonyl)phenyl)amino)-5-methyl-5H-benzo[e]pyrimido[5,4-b][1,4]diazepin-6(11H)-one]",100,38,100,0.05
CCOc1cc(C(=O)N2CCC(N3CCN(C)CC3)CC2)ccc1Nc1ncc2c(n1)N(C1CCCC1)c1ccccc1C(=O)N2C [Compound 26],100,96,100,0.1
